Results reported in ChEMBL document CHEMBL2074575, “Human organic anion transporting polypeptide-C (SLC21A6) is a major determinant of rifampin-mediated pregnane X receptor activation” (J Pharmacol Exp Ther, 2003).

Tests used:
Assay type in all cases: functional, cell-based
[1] = molecular target: T1, Solute carrier organic anion transporter family member 1B1 (Homo sapiens, UniProt Q9Y6L6); experiment: TP_TRANSPORTER: inhibition of E217betaG uptake (E217betaG: 0.5 uM, Hyperforin: 10 uM) in OATP-C-expressing HeLa cells
T1 sequence (Q9Y6L6 whole entry): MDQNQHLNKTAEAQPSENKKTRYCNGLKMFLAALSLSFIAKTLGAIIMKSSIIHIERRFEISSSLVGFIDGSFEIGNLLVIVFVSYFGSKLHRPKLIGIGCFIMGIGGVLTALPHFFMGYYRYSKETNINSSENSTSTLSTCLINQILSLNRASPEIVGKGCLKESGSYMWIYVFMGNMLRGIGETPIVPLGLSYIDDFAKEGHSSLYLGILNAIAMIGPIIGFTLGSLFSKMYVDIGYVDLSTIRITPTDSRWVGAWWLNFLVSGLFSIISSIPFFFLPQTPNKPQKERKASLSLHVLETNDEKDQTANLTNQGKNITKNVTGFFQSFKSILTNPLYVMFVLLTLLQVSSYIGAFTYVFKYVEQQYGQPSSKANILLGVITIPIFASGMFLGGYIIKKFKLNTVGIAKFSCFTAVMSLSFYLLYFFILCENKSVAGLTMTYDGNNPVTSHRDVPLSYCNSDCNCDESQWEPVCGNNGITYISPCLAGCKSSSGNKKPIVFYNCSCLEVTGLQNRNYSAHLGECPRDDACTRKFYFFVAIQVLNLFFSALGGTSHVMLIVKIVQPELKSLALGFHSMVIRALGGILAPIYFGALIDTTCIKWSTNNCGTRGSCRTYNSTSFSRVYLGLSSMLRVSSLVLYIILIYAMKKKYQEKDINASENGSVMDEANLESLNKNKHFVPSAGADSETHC

[2] = molecular target: T1, Solute carrier organic anion transporter family member 1B1; experiment: TP_TRANSPORTER: inhibition of E217betaG uptake (E217betaG: 0.5 uM, Indinavir: 10 uM) in OATP-C-expressing HeLa cells
[3] = molecular target: T1, Solute carrier organic anion transporter family member 1B1; experiment: TP_TRANSPORTER: inhibition of E217betaG uptake (E217betaG: 0.5 uM, Saquinavir: 100 uM) in OATP-C-expressing HeLa cells
[4] = molecular target: T1, Solute carrier organic anion transporter family member 1B1; experiment: TP_TRANSPORTER: inhibition of E217betaG uptake (E217betaG: 0.5 uM, BSP: 10 uM) in OATP-C-expressing HeLa cells
[5] = molecular target: T1, Solute carrier organic anion transporter family member 1B1; experiment: TP_TRANSPORTER: inhibition of E217betaG uptake (E217betaG: 0.5 uM, Nelfinavir: 10 uM) in OATP-C-expressing HeLa cells
[6] = molecular target: T1, Solute carrier organic anion transporter family member 1B1; experiment: TP_TRANSPORTER: inhibition of E217betaG uptake (E217betaG: 0.5 uM, Rifampicin: 10 uM) in OATP-C-expressing HeLa cells
[7] = substrate: CO[C@H]1/C=C/O[C@@]2(C)Oc3c(C)c(O)c4c(O)c(c(/C=N/N5CCN(C)CC5)c(O)c4c3C2=O)NC(=O)/C(C)=C\C=C\[C@H](C)[C@H](O)[C@@H](C)[C@@H](O)[C@@H](C)[C@H](OC(C)=O)[C@@H]1C; experiment: TP_TRANSPORTER: uptake in OATP-C-expressing HeLa cells

**Q.** With CC(C)=CCC[C@]1(C)[C@@H](CC=C(C)C)C[C@]2(CC=C(C)C)C(=O)C(CC=C(C)C)=C(O)[C@@]1(C(=O)C(C)C)C2=O as the molecule, how does the Activity [1] read?
**A.** inhibitor [(at a rough estimate) 10 % of control]

**Q.** For CC(C)(C)NC(=O)[C@@H]1CN(Cc2cccnc2)CCN1C[C@@H](O)C[C@@H](Cc1ccccc1)C(=O)N[C@H]1c2ccccc2C[C@H]1O.O, which Activity [2] is on record?
**A.** inhibitor [(at a rough estimate) 35 % of control]

**Q.** Which Activity [3] does the source give for CC(C)(C)NC(=O)[C@@H]1C[C@@H]2CCCC[C@@H]2CN1C[C@@H](O)[C@H](Cc1ccccc1)NC(=O)[C@H](CC(N)=O)NC(=O)c1ccc2ccccc2n1 here?
**A.** inhibitor [(at a rough estimate) 10 % of control]

**Q.** How did the Activity [4] turn out when O=C1OC(c2ccc(O)c(S(=O)(=O)[O-])c2)(c2ccc(O)c(S(=O)(=O)[O-])c2)c2c(Br)c(Br)c(Br)c(Br)c21.[Na+].[Na+] [SULFOBROMOPHTHALEIN SODIUM] was run?
**A.** inhibitor [(at a rough estimate) <5 % of control]

**Q.** For Cc1c(O)cccc1C(=O)N[C@@H](CSc1ccccc1)[C@H](O)CN1C[C@H]2CCCC[C@H]2C[C@H]1C(=O)NC(C)(C)C, which Activity [5] is on record?
**A.** inhibitor [(at a rough estimate) 15 % of control]

**Q.** Which Activity [6] does the source give for CO[C@H]1/C=C/O[C@@]2(C)Oc3c(C)c(O)c4c(O)c(c(/C=N/N5CCN(C)CC5)c(O)c4c3C2=O)NC(=O)/C(C)=C\C=C\[C@H](C)[C@H](O)[C@@H](C)[C@@H](O)[C@@H](C)[C@H](OC(C)=O)[C@@H]1C [RIFAMPIN] here?
**A.** inhibitor [(at a rough estimate) 10 % of control]

B1: Solute carrier organic anion transporter family member 1B1 (Homo sapiens) (protein)
chain: MDQNQHLNKTAEAQPSENKKTRYCNGLKMFLAALSLSFIAKTLGAIIMKSSIIHIERRFEISSSLVGFIDGSFEIGNLLVIVFVSYFGSKLHRPKLIGIGCFIMGIGGVLTALPHFFMGYYRYSKETNINSSENSTSTLSTCLINQILSLNRASPEIVGKGCLKESGSYMWIYVFMGNMLRGIGETPIVPLGLSYIDDFAKEGHSSLYLGILNAIAMIGPIIGFTLGSLFSKMYVDIGYVDLSTIRITPTDSRWVGAWWLNFLVSGLFSIISSIPFFFLPQTPNKPQKERKASLSLHVLETNDEKDQTANLTNQGKNITKNVTGFFQSFKSILTNPLYVMFVLLTLLQVSSYIGAFTYVFKYVEQQYGQPSSKANILLGVITIPIFASGMFLGGYIIKKFKLNTVGIAKFSCFTAVMSLSFYLLYFFILCENKSVAGLTMTYDGNNPVTSHRDVPLSYCNSDCNCDESQWEPVCGNNGITYISPCLAGCKSSSGNKKPIVFYNCSCLEVTGLQNRNYSAHLGECPRDDACTRKFYFFVAIQVLNLFFSALGGTSHVMLIVKIVQPELKSLALGFHSMVIRALGGILAPIYFGALIDTTCIKWSTNNCGTRGSCRTYNSTSFSRVYLGLSSMLRVSSLVLYIILIYAMKKKYQEKDINASENGSVMDEANLESLNKNKHFVPSAGADSETHC
**Q.** For B1, which Km [7] is on record?
**A.** 1.5 µM
